Test results from patent US6221866A, “Indanyl-substituted benzenecarboxamides, processes for their preparation, their use as a medicament, and pharmaceutical formulations containing them” (priority 1999, dated 2001).

Biological target: T1, Human Kv1.5 channels (Homo sapiens, UniProt P22460)
T1 construct: expressed in transfected cells; host or cells: Xenopus laevis oocytes injected with Kv1.5-coding RNA synthesized in vitro
Experiment: Inhibition of human Kv1.5 current expressed in Xenopus oocytes (two microelectrode voltage clamp)
Type: cell-based
Details: human Kv1.5 expressed in Xenopus oocytes; voltage jumps to 0 mV and 40 mV, 500 ms; RT; pH 7.4; Hill equation
Description: Human Kv1.5 channels were expressed in Xenopus oocytes. For this purpose, oocytes were first isolated from Xenopus laevis and were defolliculated. Kv1.5-coding RNA synthesized in vitro was then injected into these oocytes. After Kv1.5 protein expression for 1-7 days, Kv1.5 currents were measured on the oocytes by the two microelectrode voltage clamp technique. Here, the Kv1.5 channels were activated as a rule with voltage jumps to 0 mV and 40 mV, lasting for 500 ms. The bath was flushed with a solution of the following composition: 96 mM NACl, 2 mM KCl, 1.8 mM CaCl2, 1 mM MgCl2, and 5 mM HEPES (tritrated with NaOH to pH 7.4). These experiments were carried out at RT. The following were used for data acquisition and analysis: Geneclamp amplifier (Axon Instruments, Foster City, USA) and MacLab D/A converter and software (ADinstruments, Castle Hill, Australia). The substances according to the invention were tested by adding them in different concentrations to the bath solution. The effects of the substances were calculated as percentage inhibition of the Kv1.5 control current obtained when no substance was added to the solution. The data were then extrapolated using the Hill equation, in order to determine the inhibitory concentration (IC50) for the respective substances.

T1 sequence (P22460 whole entry): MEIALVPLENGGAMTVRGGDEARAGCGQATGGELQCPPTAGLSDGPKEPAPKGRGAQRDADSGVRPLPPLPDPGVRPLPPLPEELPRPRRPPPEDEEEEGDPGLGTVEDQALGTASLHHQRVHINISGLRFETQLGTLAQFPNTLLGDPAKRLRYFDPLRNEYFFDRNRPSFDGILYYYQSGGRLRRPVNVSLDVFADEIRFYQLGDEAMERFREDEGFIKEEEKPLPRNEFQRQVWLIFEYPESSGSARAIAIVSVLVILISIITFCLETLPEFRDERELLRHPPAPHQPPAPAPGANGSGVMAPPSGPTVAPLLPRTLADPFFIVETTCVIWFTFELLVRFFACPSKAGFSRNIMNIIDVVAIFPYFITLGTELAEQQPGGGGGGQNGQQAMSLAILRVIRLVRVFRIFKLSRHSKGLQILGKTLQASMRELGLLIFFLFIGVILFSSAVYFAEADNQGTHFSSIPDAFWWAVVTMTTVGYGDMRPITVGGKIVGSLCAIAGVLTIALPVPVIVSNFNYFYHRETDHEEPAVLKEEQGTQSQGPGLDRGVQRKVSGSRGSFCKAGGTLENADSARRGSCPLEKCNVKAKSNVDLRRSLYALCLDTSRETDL

Row | SMILES | IC50 [µM]
1 | NS(=O)(=O)c1cc(C(=O)NC2CCc3ccccc32)ccc1Cl (centres unmarked) [Example 1] | > 10
2 | CCCCNS(=O)(=O)c1cc(C(=O)NC2CCc3ccccc32)ccc1Cl (centres unmarked) [Example 3] | 7.7
3 | CC(C)CNS(=O)(=O)c1cc(C(=O)NC2CCc3ccccc32)c(Cl)cc1Cl (centres unmarked) [Example 10] | 4.8
4 | CC(C)CCNS(=O)(=O)c1cc(C(=O)NC2CCc3ccccc32)c(Cl)cc1Cl (centres unmarked) [Example 11] | 2.8
5 | O=C(NC1CCc2ccccc21)c1cc(S(=O)(=O)NC2CCCCC2)c(Cl)cc1Cl (centres unmarked) [Example 13] | 3.9
6 | O=C(NC1CCc2ccccc21)c1cc(S(=O)(=O)NC2CCC2)c(Cl)cc1Cl (centres unmarked) [Example 14] | 4.2
7 | CC(C)CCNS(=O)(=O)c1cc(C(=O)N[C@@H]2CCc3ccccc32)c(Cl)cc1Cl [Example 19] | ~3
8 | CC(C)CCNS(=O)(=O)c1cc(C(=O)N[C@H]2CCc3ccccc32)c(Cl)cc1Cl [Example 20] | ~3
9 | Cc1ccc(S(=O)(=O)NCCC(C)C)cc1C(=O)NC1CCc2ccccc21 (centres unmarked) [Example 43] | 5.3
10 | Cc1ccc(S(=O)(=O)NC2CCCCC2)cc1C(=O)NC1CCc2ccccc21 (centres unmarked) [Example 51] | 7.1
11 | Cc1cc(C)c(S(=O)(=O)NCCC(C)C)cc1C(=O)NC1CCc2ccccc21 (centres unmarked) [Example 57] | 8.8
12 | Cc1cc(S(=O)(=O)NCCC(C)C)cc(C(=O)NC2CCc3ccccc32)c1C (centres unmarked) [Example 60] | 6.9
13 | O=C(NC1CCc2ccccc21)c1cc(S(=O)(=O)Nc2ccccc2)ccc1Cl (centres unmarked) [Example 62] | 6.3
14 | O=C(NC1CCc2ccccc21)c1cc(S(=O)(=O)NC2CCCCC2)c(F)cc1Cl (centres unmarked) [Example 73] | 6.2
15 | COc1ccc2c(c1)C(NC(=O)c1ccc(Cl)c(S(=O)(=O)NCCC(C)C)c1)CC2 (centres unmarked) [Example 88] | 8.7
16 | COc1cc2c(cc1OC)C(NC(=O)c1ccc(Cl)c(S(=O)(=O)NCCC(C)C)c1)CC2 (centres unmarked) [Example 89] | 5.6
17 | COc1ccc(NS(=O)(=O)c2cc(C(=O)NC3CCc4ccccc43)c(Cl)cc2F)cc1 (centres unmarked) [Example 90] | 2.8
18 | CN(C(=O)c1cc(S(=O)(=O)NC2CCCCC2)ccc1Cl)C1CCc2ccccc21 (centres unmarked) [Example 94] | 2.2

System: Kv1.5 channel
Experiment: not given
Details: described in the literature, side effect alongside other principal effects; cited from earlier work

Row | SMILES | blocking effect on the Kv1.5 channel (in words)
19 | CCCCN1CCCCC1C(=O)Nc1c(C)cccc1C (centres unmarked) [Bupivacaine] | blocking effect on the Kv1.5 channel
20 | O=C1NCCN1CCN1CCC(c2cn(-c3ccc(F)cc3)c3ccc(Cl)cc23)CC1 [Sertindole] | blocking effect on the Kv1.5 channel
21 | C1CCC2(C1)C1CN(CC3CC3)CC2CN(CC2CC2)C1 [Tedisamil] | blocking effect on the Kv1.5 channel

System: fast-activating potassium channel IKr
Experiment: not given
Details: human ventricle and atrium cells; cited from earlier work

Row | SMILES | block of IKr (in words)
22 | CN(CCOc1ccc(NS(C)(=O)=O)cc1)CCc1ccc(NS(C)(=O)=O)cc1 [Dofetilide] | predominantly or exclusively block the fast-activating potassium channel IKr
23 | CC(C)NC[C@@H](O)c1ccc(NS(C)(=O)=O)cc1 [d-Sotalol] | predominantly or exclusively block the fast-activating potassium channel IKr
